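Following 48 hours of exposure in 96-well plates, responses at five concentrations were used to interpolate endpoints linearly. GI50 is the concentration that inhibits growth by half.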 Active and inactive are the calls of the source. Cut-off read from the data, not from the text of the source: active = GI50 up to about 1.1 µM and inactive = higher.
Key:
Assay in all cases: DTP human tumour cell line panel, 48 h
HOP-62 = test system: HOP-62
HCT-116 = test system: HCT-116
M14 = test system: M14
SF-268 = test system: SF-268
SNB-19 = test system: SNB-19
SK-MEL-28 = test system: SK-MEL-28
Malme-3M = test system: Malme-3M
RPMI-8226 = test system: RPMI-8226
SF-295 = test system: SF-295
UACC-257 = test system: UACC-257
NCI-H226 = test system: NCI-H226
ACHN = test system: ACHN
HOP-92 = test system: HOP-92
RXF 393 = test system: RXF 393
A498 = test system: A498
IGROV-1 = test system: IGROV-1
HCC 2998 = test system: HCC 2998
HCT-15 = test system: HCT-15
K562 = test system: K562
SW-620 = test system: SW-620

In the case of `COc1ccc(OC)c(/C=C/NC=O)c1`, the GI50 (HOP-62) was > 100 µM (inactive), the GI50 (HCT-116) was > 100 µM (inactive) and the GI50 (M14) was > 100 µM (inactive). For the same compound, the GI50 (SF-268) was > 100 µM (inactive), the GI50 (SNB-19) was > 100 µM (inactive) and the GI50 (SK-MEL-28) was > 100 µM (inactive). The GI50 (Malme-3M) was > 100 µM (inactive), the GI50 (RPMI-8226) was > 100 µM (inactive) and the GI50 (SF-295) was > 100 µM (inactive). For the same compound, the GI50 (UACC-257) was > 100 µM (inactive), the GI50 (NCI-H226) was > 100 µM (inactive) and the GI50 (ACHN) was > 100 µM (inactive). The GI50 (HOP-92) was > 100 µM (inactive), the GI50 (RXF 393) was > 100 µM (inactive) and the GI50 (A498) was > 100 µM (inactive). The GI50 (IGROV-1) was > 100 µM (inactive), the GI50 (HCC 2998) was > 100 µM (inactive) and the GI50 (HCT-15) was greater than 100 µM. The GI50 (K562) was > 100 µM (inactive) and the GI50 (SW-620) was > 54.5 µM (inactive).

`CN(C)CC1CCCC1=O` (stereo not given) was tested, and the GI50 (HOP-62) was 17.9 µM (inactive), the GI50 (HCT-116) was 0.944 µM (active) and the GI50 (M14) was 1.16 µM (inactive). For the same compound, the GI50 (SF-268) was 5.85 µM (inactive), the GI50 (SNB-19) was 31 µM (inactive) and the GI50 (SK-MEL-28) was 2.98 µM (inactive). The GI50 (Malme-3M) was 1.02 µM (active), the GI50 (RPMI-8226) was 0.0502 µM (active) and the GI50 (SF-295) was 19.8 µM (inactive). The GI50 (UACC-257) was 1.5 µM (inactive), the GI50 (NCI-H226) was 14.4 µM (inactive) and the GI50 (ACHN) was 3.03 µM (inactive). The GI50 (HOP-92) was 0.973 µM (active), the GI50 (RXF 393) was 2.55 µM (inactive) and the GI50 (A498) was 10.5 µM (inactive). The GI50 (IGROV-1) was 7.57 µM (inactive), the GI50 (HCC 2998) was 2.17 µM (inactive) and the GI50 (HCT-15) was 0.378 µM. For the same compound, the GI50 (K562) was 0.0632 µM (active) and the GI50 (SW-620) was 0.2 µM (active).

For `CC(C)=CCN1c2ccc(Cl)cc2NC(=O)CC1C` (stereo not given), the GI50 (HOP-62) was 23.5 µM (inactive), the GI50 (HCT-116) was 18.4 µM (inactive) and the GI50 (M14) was 17.8 µM (inactive). The GI50 (SF-268) was 34.7 µM (inactive), the GI50 (SNB-19) was 36.9 µM (inactive) and the GI50 (SK-MEL-28) was 41.9 µM (inactive). The GI50 (Malme-3M) was 20.3 µM (inactive), the GI50 (RPMI-8226) was 22.1 µM (inactive) and the GI50 (SF-295) was 35.1 µM (inactive). For the same compound, the GI50 (UACC-257) was 21.2 µM (inactive), the GI50 (NCI-H226) was 7.94 µM (inactive) and the GI50 (ACHN) was 19.1 µM (inactive). For the same compound, the GI50 (HOP-92) was 14.1 µM (inactive), the GI50 (RXF 393) was 24.9 µM (inactive) and the GI50 (A498) was 21.8 µM (inactive). For the same compound, the GI50 (IGROV-1) was 21.8 µM (inactive), the GI50 (HCC 2998) was 44.4 µM (inactive) and the GI50 (HCT-15) was 31.4 µM. The GI50 (K562) was 65.6 µM (inactive) and the GI50 (SW-620) was 34.4 µM (inactive).

For `COc1c2c(nc3ccccc13)-c1cc3c(c(=O)n1C2)COC(=O)C3(O)CC(=O)N1CCOCC1` (stereo not given), the GI50 (HOP-62) was 1 µM (active), the GI50 (HCT-116) was 6.55 µM (inactive) and the GI50 (M14) was 4.04 µM (inactive). The GI50 (SF-268) was 0.532 µM (active), the GI50 (SNB-19) was 1.27 µM (inactive) and the GI50 (SK-MEL-28) was 17 µM (inactive). For the same compound, the GI50 (Malme-3M) was 16.3 µM (inactive), the GI50 (RPMI-8226) was 6.43 µM (inactive) and the GI50 (SF-295) was 3.59 µM (inactive). The GI50 (UACC-257) was 19 µM (inactive), the GI50 (NCI-H226) was 6 µM (inactive) and the GI50 (ACHN) was 3.13 µM (inactive). The GI50 (HOP-92) was 9.25 µM (inactive), the GI50 (RXF 393) was 6.01 µM (inactive) and the GI50 (A498) was 13.2 µM (inactive). For the same compound, the GI50 (IGROV-1) was 44.1 µM (inactive), the GI50 (HCC 2998) was 18.2 µM (inactive) and the GI50 (HCT-15) was 41.4 µM. For the same compound, the GI50 (K562) was 4.85 µM (inactive) and the GI50 (SW-620) was 5.4 µM (inactive).

In the case of `C=C(NC(=O)C(=C)NC(=O)c1ccc2c(n1)-c1coc(n1)C(=C)NC(=O)C(=C)NC(=O)c1nc(oc1C)C(=C)NC(=O)C(C(C)(C)O)NC(=O)C(=C)NC(=O)c1coc(n1)/C(=C/C)NC(=O)[C@H]([C@@H](C)O)NC(=O)c1csc-2n1)C(N)=O` (stereo not given in full), the GI50 (HOP-62) was 81.5 µM (inactive), the GI50 (HCT-116) was > 87.5 µM (inactive) and the GI50 (M14) was 55 µM (inactive). For the same compound, the GI50 (SF-268) was > 87.5 µM (inactive), the GI50 (SNB-19) was > 87.5 µM (inactive) and the GI50 (SK-MEL-28) was > 87.5 µM (inactive). The GI50 (Malme-3M) was > 87.5 µM (inactive), the GI50 (RPMI-8226) was > 87.5 µM (inactive) and the GI50 (SF-295) was > 87.5 µM (inactive). For the same compound, the GI50 (UACC-257) was > 87.5 µM (inactive), the GI50 (NCI-H226) was > 87.5 µM (inactive) and the GI50 (ACHN) was > 87.5 µM (inactive). The GI50 (HOP-92) was > 87.5 µM (inactive), the GI50 (RXF 393) was > 87.5 µM (inactive) and the GI50 (A498) was > 87.5 µM (inactive). For the same compound, the GI50 (IGROV-1) was 61.1 µM (inactive), the GI50 (HCC 2998) was > 87.5 µM (inactive) and the GI50 (HCT-15) was greater than 87.5 µM. The GI50 (K562) was > 87.5 µM (inactive) and the GI50 (SW-620) was > 87.5 µM (inactive).

With `Cc1ccccc1N1C(=O)C2C=CC(n3[nH]c(=O)n(Cc4ccccc4)c3=O)CC2C1=O` (stereo not given) the GI50 (HOP-62) was > 100 µM (inactive), the GI50 (HCT-116) was > 100 µM (inactive) and the GI50 (M14) was > 100 µM (inactive). For the same compound, the GI50 (SF-268) was > 100 µM (inactive), the GI50 (SNB-19) was > 100 µM (inactive) and the GI50 (SK-MEL-28) was > 100 µM (inactive). For the same compound, the GI50 (Malme-3M) was > 100 µM (inactive), the GI50 (RPMI-8226) was > 100 µM (inactive) and the GI50 (SF-295) was > 100 µM (inactive). For the same compound, the GI50 (UACC-257) was > 100 µM (inactive), the GI50 (NCI-H226) was > 100 µM (inactive) and the GI50 (ACHN) was > 100 µM (inactive). For the same compound, the GI50 (HOP-92) was > 100 µM (inactive), the GI50 (RXF 393) was > 100 µM (inactive) and the GI50 (A498) was > 100 µM (inactive). For the same compound, the GI50 (IGROV-1) was > 100 µM (inactive), the GI50 (HCC 2998) was > 100 µM (inactive) and the GI50 (HCT-15) was greater than 100 µM. The GI50 (K562) was > 100 µM (inactive) and the GI50 (SW-620) was > 100 µM (inactive).

Source: ChEMBL document CHEMBL1201862, “PubChem BioAssay data set” (2004)
